Data reported in patent US8501446B2 (Vertex Pharmaceuticals Incorporated, priority 2004, dated 2013).
Read-outs that look alike come from different tables or passages of the source.

Experiments:
Format in all cases: biochemical
JAK3 = target: T1, JAK3 (Homo sapiens, UniProt P52333); assay: JAK3 inhibition assay (standard radioactive enzyme assay); settings: average Ki if more than one value determined
T1 sequence (P52333 1-1124): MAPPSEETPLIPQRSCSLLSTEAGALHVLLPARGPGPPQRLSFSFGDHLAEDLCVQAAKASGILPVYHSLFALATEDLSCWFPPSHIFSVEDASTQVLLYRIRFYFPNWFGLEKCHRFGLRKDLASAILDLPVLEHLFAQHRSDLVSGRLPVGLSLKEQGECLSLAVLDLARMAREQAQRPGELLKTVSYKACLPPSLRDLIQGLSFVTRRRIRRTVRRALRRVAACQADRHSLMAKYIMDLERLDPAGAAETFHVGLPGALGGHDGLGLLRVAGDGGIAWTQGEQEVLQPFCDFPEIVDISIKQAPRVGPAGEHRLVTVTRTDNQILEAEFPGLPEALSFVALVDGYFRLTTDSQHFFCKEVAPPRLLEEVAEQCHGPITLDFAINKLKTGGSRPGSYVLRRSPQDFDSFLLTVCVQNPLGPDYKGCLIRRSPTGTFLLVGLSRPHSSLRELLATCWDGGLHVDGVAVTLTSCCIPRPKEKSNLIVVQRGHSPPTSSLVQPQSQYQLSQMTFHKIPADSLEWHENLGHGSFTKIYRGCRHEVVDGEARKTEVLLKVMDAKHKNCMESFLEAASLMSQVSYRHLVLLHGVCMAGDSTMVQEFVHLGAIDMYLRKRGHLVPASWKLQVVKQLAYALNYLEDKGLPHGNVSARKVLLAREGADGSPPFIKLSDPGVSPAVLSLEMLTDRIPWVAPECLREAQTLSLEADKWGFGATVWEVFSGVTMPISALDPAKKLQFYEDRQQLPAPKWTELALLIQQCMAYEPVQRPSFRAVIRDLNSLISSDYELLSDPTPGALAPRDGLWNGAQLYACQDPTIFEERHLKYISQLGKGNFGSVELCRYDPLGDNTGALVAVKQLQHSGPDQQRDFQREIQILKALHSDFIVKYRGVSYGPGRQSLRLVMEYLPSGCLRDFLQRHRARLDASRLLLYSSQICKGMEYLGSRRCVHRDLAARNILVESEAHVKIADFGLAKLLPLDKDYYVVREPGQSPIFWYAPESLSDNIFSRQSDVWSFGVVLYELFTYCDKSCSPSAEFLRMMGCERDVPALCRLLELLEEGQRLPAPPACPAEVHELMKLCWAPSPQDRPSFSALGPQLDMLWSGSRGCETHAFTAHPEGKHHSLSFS

JAK2 = JAK2 (Homo sapiens, UniProt O60674); assay: JAK2 inhibition assay (radioactive enzyme assay, as for JAK3); settings: average Ki if more than one value determined
Summary of the method: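 Both kinases: poly(Glu)4Tyr substrate in 100 mM HEPES pH 7.4, 10 mM MgCl2, 1 mM DTT. Run 20 min at 25° C, TCA stop, filter-bound ³³P counted, Ki(app) fitted after background subtraction. JAK3: final [γ-³³P]ATP 5 μM, enzyme added as 2 nM solution. JAK2: final poly(Glu)4Tyr 15 μM, final ATP 12 μM.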

ROCK = ROCK (Homo sapiens, UniProt Q13464); assay: ROCK inhibition assay, standard radioactive enzyme assay ("33P")
Procedure: Some compounds were screened for their ability to inhibit ROCK using a standard radioactive enzyme assay. Assays were carried out in a solution containing 100 mM HEPES (pH 7.5), 10 mM MgCl2, 25 mM NaCl, 2 mM DTT, and 1.5% DMSO. Final substrate concentrations in the assay were 13 μM [γ-^33P] ATP (25 mCi ^33P ATP/mmol ATP, Perkin Elmer, Cambridge, Mass./Sigma Chemicals, St Louis, Mo.) and 27 μM Myelin Basic Protein (MBP). Final enzyme concentration in the assay was 5 nM ROCK. Assays were carried out at room temperature. 1.5 μl of DMSO stock containing serial dilutions of the compound of the present invention (concentrations ranging from 10 μM to 2.6 nM) was placed in a 96 well plate. 50 μl of Solution 1 (100 mM HEPES (pH 7.5), 10 mM MgCl2, […]) was added to the plate. The reaction was initiated by addition of 50 μl of Solution 2 (100 mM HEPES (pH 7.5), 10 mM MgCl2, 4 mM DTT, […] and 10 nM ROCK). After 2 hours the reaction was quenched with 50 μL of 30% trichloroacetic acid (TCA, Fisher) containing 9 mM ATP. Transfer of 140 μL of the quenched reaction to a glass fiber filter plate (Corning, Cat. No. 3511) was followed by washing 3 times with 5% TCA. 50 μL of Optima Gold scintillation fluid (Perkin Elmer) was added and the plates were counted on a Top Count (Perkin Elmer). After removing mean background values for all of the data points the data was fit using Prism software to obtain a Ki(app).

[1] = target: T2, full length Aurora-A (AA 1-403) (Homo sapiens, UniProt O14965); assay: Aurora-A inhibition assay, standard coupled enzyme system; settings: average Ki if more than one value determined
T2 construct: full length Aurora-A (AA 1-403)
T2 sequence (O14965 1-403): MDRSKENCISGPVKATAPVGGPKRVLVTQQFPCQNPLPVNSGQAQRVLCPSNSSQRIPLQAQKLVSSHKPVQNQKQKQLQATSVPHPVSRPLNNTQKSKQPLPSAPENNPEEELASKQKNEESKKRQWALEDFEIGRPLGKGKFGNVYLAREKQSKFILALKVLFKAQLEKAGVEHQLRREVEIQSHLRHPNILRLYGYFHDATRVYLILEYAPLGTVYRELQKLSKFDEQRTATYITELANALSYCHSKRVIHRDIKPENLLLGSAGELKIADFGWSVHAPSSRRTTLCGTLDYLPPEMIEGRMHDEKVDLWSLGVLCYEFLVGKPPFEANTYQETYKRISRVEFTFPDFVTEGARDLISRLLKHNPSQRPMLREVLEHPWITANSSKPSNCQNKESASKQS

ROCK I (AA 6-553) = target: T3, ROCK I (AA 6-553) (Homo sapiens, UniProt Q13464); assay: ROCK inhibition assay, standard coupled enzyme system ("Enzyme"); settings: enzyme-linked assay
T3 construct: ROCK I (AA 6-553)
Summary of the method: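 ROCK I (AA 6-553) at 45 nM and 30 °C with 45 μM ATP and 200 μM peptide, in 100 mM HEPES pH 7.5, 10 mM MgCl2, 25 mM NaCl, 2 mM DTT, 1.5% DMSO. ADP output read by a PK/LDH coupled system: 2.5 mM PEP, 350 μM NADH, 30 μg/ml PK, 10 μg/ml LDH.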

T3 sequence (Q13464 6-553, species assumed): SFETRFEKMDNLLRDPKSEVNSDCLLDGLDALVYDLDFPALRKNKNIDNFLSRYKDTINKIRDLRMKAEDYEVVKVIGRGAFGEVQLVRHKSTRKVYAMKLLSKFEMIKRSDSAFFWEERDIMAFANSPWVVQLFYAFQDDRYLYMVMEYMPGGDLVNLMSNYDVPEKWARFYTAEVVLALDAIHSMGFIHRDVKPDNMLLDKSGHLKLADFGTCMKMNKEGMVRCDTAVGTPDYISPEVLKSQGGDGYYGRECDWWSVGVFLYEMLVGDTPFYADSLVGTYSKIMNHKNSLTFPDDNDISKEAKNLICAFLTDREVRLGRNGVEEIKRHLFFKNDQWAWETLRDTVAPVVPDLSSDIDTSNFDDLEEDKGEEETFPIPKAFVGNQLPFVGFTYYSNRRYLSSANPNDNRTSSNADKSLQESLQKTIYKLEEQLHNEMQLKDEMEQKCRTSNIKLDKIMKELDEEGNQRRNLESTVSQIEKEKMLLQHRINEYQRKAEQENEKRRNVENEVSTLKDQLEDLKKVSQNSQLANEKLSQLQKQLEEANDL
JAK2, sequence (O60674 whole entry, species assumed): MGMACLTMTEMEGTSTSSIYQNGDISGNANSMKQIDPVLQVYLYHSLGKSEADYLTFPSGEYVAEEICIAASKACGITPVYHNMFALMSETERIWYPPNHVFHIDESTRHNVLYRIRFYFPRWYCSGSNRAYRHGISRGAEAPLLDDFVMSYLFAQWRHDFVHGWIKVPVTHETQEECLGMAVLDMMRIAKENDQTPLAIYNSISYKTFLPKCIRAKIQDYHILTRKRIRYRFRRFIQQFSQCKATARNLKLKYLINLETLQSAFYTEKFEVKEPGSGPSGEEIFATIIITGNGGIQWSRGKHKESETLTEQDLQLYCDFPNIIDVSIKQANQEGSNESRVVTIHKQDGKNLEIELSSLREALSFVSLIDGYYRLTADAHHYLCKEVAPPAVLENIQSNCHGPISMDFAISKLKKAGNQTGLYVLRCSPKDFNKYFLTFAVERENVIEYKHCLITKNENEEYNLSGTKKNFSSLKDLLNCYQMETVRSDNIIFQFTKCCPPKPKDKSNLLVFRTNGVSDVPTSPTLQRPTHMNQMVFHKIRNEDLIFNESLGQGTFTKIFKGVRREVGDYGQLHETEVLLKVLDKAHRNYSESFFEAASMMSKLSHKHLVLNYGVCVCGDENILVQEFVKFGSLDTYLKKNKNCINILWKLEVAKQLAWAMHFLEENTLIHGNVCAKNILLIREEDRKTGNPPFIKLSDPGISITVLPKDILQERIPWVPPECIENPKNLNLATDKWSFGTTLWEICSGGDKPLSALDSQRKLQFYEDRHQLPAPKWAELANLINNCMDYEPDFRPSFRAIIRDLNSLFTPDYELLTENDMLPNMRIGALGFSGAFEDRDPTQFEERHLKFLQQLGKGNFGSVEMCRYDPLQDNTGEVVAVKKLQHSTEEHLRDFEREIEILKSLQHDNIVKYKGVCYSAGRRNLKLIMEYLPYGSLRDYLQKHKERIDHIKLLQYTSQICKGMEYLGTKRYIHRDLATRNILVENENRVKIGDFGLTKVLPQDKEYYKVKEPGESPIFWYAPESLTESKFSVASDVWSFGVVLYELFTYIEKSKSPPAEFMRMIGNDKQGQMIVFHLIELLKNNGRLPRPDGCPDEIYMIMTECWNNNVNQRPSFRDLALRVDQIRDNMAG
ROCK, sequence (Q13464 whole entry): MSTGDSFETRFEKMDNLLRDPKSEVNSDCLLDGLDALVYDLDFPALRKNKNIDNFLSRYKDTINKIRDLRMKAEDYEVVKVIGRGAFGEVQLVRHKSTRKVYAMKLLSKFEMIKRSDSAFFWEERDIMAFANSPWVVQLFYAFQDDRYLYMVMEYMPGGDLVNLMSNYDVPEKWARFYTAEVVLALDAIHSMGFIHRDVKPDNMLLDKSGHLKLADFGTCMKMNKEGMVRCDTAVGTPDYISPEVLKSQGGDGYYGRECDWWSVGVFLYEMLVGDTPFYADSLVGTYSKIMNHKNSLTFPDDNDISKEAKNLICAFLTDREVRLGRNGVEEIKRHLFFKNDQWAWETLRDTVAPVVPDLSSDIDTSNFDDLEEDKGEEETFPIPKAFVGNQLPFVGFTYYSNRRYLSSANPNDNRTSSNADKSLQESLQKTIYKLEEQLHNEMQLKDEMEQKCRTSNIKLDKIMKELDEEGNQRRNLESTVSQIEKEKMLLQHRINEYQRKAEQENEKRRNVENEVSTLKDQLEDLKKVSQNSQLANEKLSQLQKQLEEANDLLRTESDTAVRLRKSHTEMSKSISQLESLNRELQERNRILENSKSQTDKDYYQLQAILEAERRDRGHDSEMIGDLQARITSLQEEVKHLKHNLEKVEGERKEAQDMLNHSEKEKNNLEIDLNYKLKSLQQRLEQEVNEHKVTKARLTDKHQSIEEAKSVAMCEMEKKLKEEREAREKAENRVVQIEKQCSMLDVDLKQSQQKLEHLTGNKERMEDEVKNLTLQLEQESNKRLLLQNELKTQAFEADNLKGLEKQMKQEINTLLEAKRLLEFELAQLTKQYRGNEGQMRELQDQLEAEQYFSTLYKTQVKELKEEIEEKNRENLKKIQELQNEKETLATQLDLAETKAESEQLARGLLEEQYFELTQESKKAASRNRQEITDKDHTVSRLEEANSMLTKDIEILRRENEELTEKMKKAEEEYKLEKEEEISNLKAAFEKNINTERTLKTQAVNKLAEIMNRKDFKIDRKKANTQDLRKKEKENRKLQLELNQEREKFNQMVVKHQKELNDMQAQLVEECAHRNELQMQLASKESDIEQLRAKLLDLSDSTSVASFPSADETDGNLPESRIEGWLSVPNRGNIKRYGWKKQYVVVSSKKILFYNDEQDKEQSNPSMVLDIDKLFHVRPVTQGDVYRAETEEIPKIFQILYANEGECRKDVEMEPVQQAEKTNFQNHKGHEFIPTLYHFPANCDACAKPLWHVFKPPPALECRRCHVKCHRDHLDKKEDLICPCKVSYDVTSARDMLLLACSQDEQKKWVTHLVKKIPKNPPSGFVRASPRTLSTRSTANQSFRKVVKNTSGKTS

Row | Structure (SMILES) | Ki (JAK3) [µM] | Ki (JAK2) [µM] | Ki (ROCK) [µM] | Ki [1] [µM] | Ki (JAK3; Ki(app)) [µM] | Ki (JAK2; Ki(app)) [µM] | Ki (ROCK; Ki(app)) [µM] | Ki (ROCK I (AA 6-553)) [µM]
1 | CC(=O)N1CCCN(c2nccc(-c3c[nH]c4ncc(C(N)=O)cc34)n2)CC1 [Compound 1] | < 0.5 | < 0.5 | 0.5 to 5 |  |  |  |  | 
2 | c1ccc(CNc2nccc(-c3c[nH]c4ncc(-c5cccnc5)cc34)n2)cc1 [Compound 2] | < 0.5 | < 0.5 | 0.5 to 5 |  |  |  |  | 
3 | CC(=O)N1CCCN(c2nccc(-c3c[nH]c4ncc(-c5cccnc5)cc34)n2)CC1 [Compound 3] | < 0.5 | < 0.5 | < 0.5 |  |  |  |  | 
4 | Clc1cnc2[nH]cc(-c3ccnc(NCc4ccccc4)n3)c2c1 [Compound 4] | < 0.5 | < 0.5 | < 0.5 | < 0.5 |  |  |  | 
5 | CC(=O)N1CCCN(c2nccc(-c3c[nH]c4ncc(Cl)cc34)n2)CC1 [Compound 5] | < 0.5 | < 0.5 | 0.5 to 5 |  |  |  |  | 
6 | c1cncc(CNc2nccc(-c3c[nH]c4ncccc34)n2)c1 [Compound 6] | < 0.5 | < 0.5 | < 0.5 |  |  |  |  | 
7 | Clc1cnc2[nH]cc(-c3ccnc(N4CCCCCC4)n3)c2c1 [Compound 9] | < 0.5 | < 0.5 | 0.5 to 5 | 0.5 to 5 | 0.5 to 5 | 0.5 to 5 | 0.5 to 5 | 
8 | CC(C)C[C@@H](CO)Nc1nccc(-c2c[nH]c3ncc(Cl)cc23)n1 [Compound 10] | < 0.5 | < 0.5 | < 0.5 | < 0.5 |  |  |  | 
9 | c1ccc(CNc2ccnc(-c3c[nH]c4ncccc34)n2)cc1 [Compound 11, Benzyl-[2-(1H-pyrrolo[2,3-b]pyridin-3-yl)-pyrimidin-4-yl]amine] |  |  |  |  | < 0.5 | < 0.5 | < 0.5 | 
10 | COc1cnc2[nH]cc(-c3cc(NCc4ccccc4)ncn3)c2c1 [Compound 12] | < 0.5 | < 0.5 | < 0.5 |  |  |  |  | 
11 | COc1cnc2[nH]cc(-c3cc(N[C@H](C)c4ccccc4)ncn3)c2c1 [Compound 13] | < 0.5 | < 0.5 | 0.5 to 5 |  |  |  |  | 
12 | COc1cnc2[nH]cc(-c3cc(N[C@@H](C)c4ccccc4)ncn3)c2c1 [Compound 14] | < 0.5 | < 0.5 | < 0.5 | 0.5 to 5 |  |  |  | 
13 | C[C@@H]1CCN(Cc2ccccc2)CC1N(C)c1cc(-c2c[nH]c3ncccc23)ncn1 (stereo partly drawn) [Compound 15] | 0.5 to 5 | 0.5 to 5 | 0.5 to 5 |  |  |  |  | 
14 | Fc1cccc(CNc2cc(-c3c[nH]c4ncccc34)ncn2)c1 [Compound 16] | < 0.5 | < 0.5 | < 0.5 |  |  |  |  | 
15 | C[C@@H]1CCNCC1N(C)c1cc(-c2c[nH]c3ncccc23)ncn1 (stereo partly drawn) [Compound 17] | 0.5 to 5 | 0.5 to 5 | < 0.5 |  |  |  |  | 
16 | Clc1cnc2[nH]cc(-c3cccc(NCc4ccccc4)n3)c2c1 [Compound 20] | < 0.5 | < 0.5 | 0.5 to 5 | < 0.5 |  |  |  | 
17 | Clc1cccc(CNc2cc(-c3c[nH]c4ncccc34)ncn2)c1 [Compound 21] | < 0.5 | < 0.5 | < 0.5 |  |  |  |  | 

Row | Structure (SMILES) | Ki (JAK3) [µM] | Ki (JAK2) [µM] | Ki (ROCK) [µM] | Ki [1] [µM] | Ki (JAK3; Ki(app)) [µM] | Ki (JAK2; Ki(app)) [µM] | Ki (ROCK; Ki(app)) [µM] | Ki (ROCK I (AA 6-553)) [µM]
18 | FC(F)(F)c1cccc(CNc2cc(-c3c[nH]c4ncccc34)ncn2)c1 [Compound 22] | < 0.5 | < 0.5 | < 0.5 |  |  |  |  | 
19 | c1ccc(-c2cccc(CNc3cc(-c4c[nH]c5ncccc45)ncn3)c2)cc1 [Compound 23] | 0.5 to 5 | 0.5 to 5 | < 0.5 |  |  |  |  | 
20 | COc1cnc2[nH]cc(-c3ccnc(N4CCCN(C(C)=O)CC4)n3)c2c1 [Compound 24] | < 0.5 | < 0.5 | < 0.5 | 0.5 to 5 |  |  |  | 
21 | COc1cnc2[nH]cc(-c3ccnc(N4C[C@@H](C)N(C(C)=O)[C@@H](C)C4)n3)c2c1 [Compound 25] | < 0.5 | < 0.5 | < 0.5 | < 0.5 |  |  |  | 
22 | CN(Cc1ccccc1)c1cc(-c2c[nH]c3ncccc23)ncn1 [Compound 26] | < 0.5 | < 0.5 | < 0.5 |  |  |  |  | 
23 | Fc1ccc(CNc2cc(-c3c[nH]c4ncccc34)ncn2)cc1 [Compound 27] | < 0.5 | < 0.5 | < 0.5 |  |  |  |  | 
24 | Nc1cccc(CNc2cc(-c3c[nH]c4ncccc34)ncn2)c1 [Compound 28] | < 0.5 | < 0.5 | < 0.5 |  |  |  |  | 
25 | Fc1cc(F)cc(CNc2cc(-c3c[nH]c4ncccc34)ncn2)c1 [Compound 29] | < 0.5 | < 0.5 | < 0.5 |  |  |  |  | 
26 | COc1cnc2[nH]cc(-c3ccnc(N4CCCN(S(C)(=O)=O)CC4)n3)c2c1 [Compound 30] | < 0.5 | < 0.5 | < 0.5 | < 0.5 |  |  |  | 
27 | CCS(=O)(=O)N1CCCN(c2nccc(-c3c[nH]c4ncc(OC)cc34)n2)CC1 [Compound 31] | < 0.5 | < 0.5 | < 0.5 |  |  |  |  | 
28 | CCCOC(=O)N1CCCN(c2nccc(-c3c[nH]c4ncc(OC)cc34)n2)CC1 [Compound 34] | < 0.5 | < 0.5 | 0.5 to 5 |  |  |  |  | < 0.5
29 | CC(=O)N1[C@H](C)CN(c2cccc(-c3c[nH]c4ncc(NC(=O)OC(C)(C)C)cc34)n2)C[C@@H]1C [Compound 37] | < 0.5 | < 0.5 | < 0.5 |  |  |  |  | 0.5 to 5
30 | COc1ccc(OC)c(-c2c[nH]c3ncc(-c4ccccc4)cc23)c1 [Compound 216] |  |  | 0.5 to 5 | < 0.5 |  |  |  | 
31 | Brc1cnc2[nH]c(-c3ccccc3)c(-c3ccc(N4CCOCC4)cc3)c2c1 [Compound 217] |  |  | 0.5 to 5 | < 0.5 |  |  |  | 0.5 to 5
32 | CS(=O)(=O)c1cccc(-c2c[nH]c3ncc(-c4ccccc4)cc23)c1 [Compound 218] |  |  | < 0.5 | < 0.5 |  |  |  | < 0.5
33 | CN(C)C(=O)c1ccc(-c2c[nH]c3ncc(-c4ccccc4)cc23)cc1 [Compound 219] |  |  | 0.5 to 5 | < 0.5 |  |  |  | 0.5 to 5
